What was measured:
[1] = Moisture sorption isotherms (Example 6B, Hiden IGASorp / SMS DVS Intrinsic); assay type: physicochemical; details: for Water absorbed up to 90% RH: 25 °C
Description: Sorption isotherms were obtained using a Hiden IGASorp moisture sorption analyser, controlled by CFRSorp software. The sample temperature was maintained at 25° C. by a Huber re-circulating water bath. The humidity was controlled by mixing streams of dry and wet nitrogen, with a total flow rate of 250 ml/min. The relative humidity (RH) was measured by a calibrated Vaisala RH probe (dynamic range of 0-95% RH), located near the sample. The weight change, (mass relaxation) of the sample as a function of % RH was constantly monitored by the microbalance (accuracy±0.001 mg).
10-20 mg of sample was placed in a tared mesh stainless steel basket under ambient conditions. The sample was loaded and unloaded at 40% RH and 25° C. (typical room conditions).
A moisture sorption isotherm was performed as outlined in Table 1 below (2 scans giving 1 complete cycle). The standard isotherm was performed at 25° C. at 10% RH intervals over a 0-90% RH range.
The software uses a least squares minimization procedure together with a model of the mass relaxation, to predict an asymptotic value. The measured mass relaxation value must be within 5% of that predicted by the software, before the next % RH value is selected. The minimum equilibration time was set to 1 hour and the maximum to 4 hours. […] The sample was recovered after completion of the isotherm and re-analyzed by XRPD.
In other cases, sorption isotherms were also obtained using a SMS DVS Intrinsic moisture sorption analyser, controlled by DVS Intrinsic Control software v1.0.1.2 (or v 1.0.1.3). […] The humidity was controlled by mixing streams of dry and wet nitrogen, with a total flow rate of 200 ml/min The relative humidity was measured by a calibrated Rotronic probe (dynamic range of 1.0-100% RH), located near the sample. The weight change, (mass relaxation) of the sample as a function of % RH was constantly monitored by the microbalance (accuracy±0.005 mg).
5-20 mg of sample was placed in a tared mesh stainless steel basket under ambient conditions. […] The sample was recovered after completion of the isotherm and re-analyzed by XRPD.

[2] = Solubility in water; assay type: physicochemical; details: final pH of the water solubility sample
[3] = Hygroscopicity by dynamic vapor sorption (Example 6A, Q5000SA); assay type: physicochemical; details: after full sorption/desorption cycle
Description: Hygroscopicity of polymorph Form 3 and polymorph Form 7 at 25° C. was determined by dynamic vapor sorption (DVS) using an automated vapor sorption balance (Q5000SA; TA instruments, New Castle, Del.). Hygroscopicity was studied as a function of relative humidity (RH) over the range of 0 to 90%. Approximately 10 mg of solid sample was placed directly onto the 13 mm quartz DVS sample cup and equilibrated at 0% relative humidity (RH) until a constant weight was achieved. After equilibration, the RH was increased in increments of 10% to reach 90%, and the water sorption was monitored. For desorption, the relative humidity was deceased in a similar manner to accomplish a full sorption/desorption cycle.
For all experiments, the instrument was operated in dm/dt mode (mass variation over time) to determine when equilibrium was reached. A fixed dm/dt value of 0.0010% min^−1 was selected for all RH segments. A maximum stage of 360 minutes and a minimum stage of 60 minutes were selected for these experiments.

[4] = PK study in pentagastrin- or famotidine-pretreated dogs; details: famotidine-pretreated dogs, similar tablet formulation
Description: Pentagastrin pretreatment (6 μg/kg intramuscular injection 30 minutes prior to test formulation dosing) in fasted dogs was used to simulate fasting gastric pH in humans. Famotidine pretreatment (20 mg orally 1 hour prior to test formulation dosing) in fasted dogs was used to simulate human gastric pH when acid suppressant was co-dosed with test formulation. The tablets of the mono-MSA salt or bis-MSA salt of a compound of Formula I (conventional tablet and spray dried formulation) were orally administered followed by a 30 mL water flush.

Water absorbed up to 90% RH ([1]; listed as Polymorph Form 7) | final pH [2] | Form by XRPD at the end of the DVS experiment [3] | Water absorbed up to 90% RH ([1]; listed as Form 3) | Form by XRPD after DVS analysis ([1]; after isotherm) | Increase of AUC0-24 compared to the mono-MSA salt formulation [4] | SMILES
~21 wt. % | – | – | – | – | – | c1cn2cc(-c3ccc4cn[nH]c4c3)nc(Nc3ccc(N4CCOCC4)cc3)c2n1 [polymorph Form 7]
– | (final pH <1.5) | converted to Form 7 | ~20 wt. % | converted to Form 7 | more than 10 fold | c1cn2cc(-c3ccc4cn[nH]c4c3)nc(Nc3ccc(N4CCOCC4)cc3)c2n1 [polymorph Form 3]

From patent US10266539B2, “Polymorph of Syk inhibitors” (Gilead Connecticut, Inc., priority 2013, dated 2019)
